Measurements: PMC10848209, “A Comparative Study on the Complexation of the Anticancer Iron Chelator VLX600 with Essential Metal Ions” (Inorganic Chemistry, 2024)

Columns and labels:
[1] = set-up: method as in PMID 30236787; conditions: vs NHE; cited from earlier work
[2] = tested on: CH1/PA-1 ovarian teratocarcinoma cells; assay: MTT cytotoxicity assay, CH1/PA-1; conditions: read-out: IC50 CH1/PA-1, 10^3 cells, 96 h exposure
Description: (§1) CH1/PA-1 (provided by L.R. Kelland, CRC Centre for Cancer Therapeutics, Institute of Cancer Research, Sutton, UK; confirmed by STR profiling as PA-1 ovarian teratocarcinoma cells at Multiplexion, Heidelberg, Germany), SW480 colon carcinoma, and A549 non-small-cell lung cancer cells (both obtained from the American Type Culture Collection, Manassas, VA, USA) were maintained in a minimal essential medium (MEM) supplemented with 1 mM sodium pyruvate, 4 mM L-glutamine, 1% (v/v) nonessential amino acids from 100-fold stock (all purchased from Sigma-Aldrich), and 10% heat-inactivated fetal bovine serum (FBS; BioWest, Nuaillé, France).
(§2) Cells were grown as monolayers in 75 cm^2 culture flasks (Starlab, Hamburg, Germany) at 37 °C in a humidified atmosphere containing 5% CO2.
(§3) The cytotoxic activity of the compounds was determined by the 3-(4,5-dimethylthiazol-2-yl)-2,5-diphenyl-2H-tetrazolium bromide (MTT) assay (obtained from Acros Organics, Geel, Belgium) in at least three independent experiments. A total of 1 × 10^3 CH1/PA-1, 2 × 10^3 SW480, and 3 × 10^3 A549 cells were seeded at 100 μL per well into 96-well microculture plates (Starlab, Hamburg, Germany) 24 h before a treatment with the test compounds for a period of 96 h. […] In the case of the metal complexes, we first mixed the ligand and the aqueous metal salt solution (c = 10 mM) in the appropriate ratio followed by dilution with the medium.
(§4) CH1/PA-1, SW480, and A549 cells were treated with 100 μL/well of the test compounds serially diluted in complete MEM. […] After 4 h incubation, the MTT-containing medium was replaced with 150 μL DMSO per well to dissolve the formazan product formed by viable cells.
(§5) The IC50 values, i.e., the concentrations resulting in half the number of viable cells relative to untreated controls, were interpolated from concentration–effect curves of at least three independent experiments.

[3] = tested on: SW480 colon carcinoma cells; assay: MTT cytotoxicity assay, SW480; conditions: read-out: IC50 SW480, 2 × 10^3 cells, 96 h exposure
Description: as §1, §2, §3, §4, §5

[4] = tested on: MRC-5 normal embryonal lung fibroblasts; assay: MTT cytotoxicity assay, MRC-5; conditions: read-out: IC50 MRC-5, 10^4 cells, 72 h exposure, nontumoral fibroblasts
Description: as §2
(§6) The cytotoxic activity of the compounds was determined by the 3-(4,5-dimethylthiazol-2-yl)-2,5-diphenyl-2H-tetrazolium bromide (MTT) assay (obtained from Acros Organics, Geel, Belgium) in at least three independent experiments. […] Furthermore, 1 × 10^4 cells of Colo205, Colo320, and MCF-7 as well as MRC-5 were seeded overnight prior to the assay with 72 h exposure to the compounds tested. […] In the case of the metal complexes, we first mixed the ligand and the aqueous metal salt solution (c = 10 mM) in the appropriate ratio followed by dilution with the medium. The metal salts dissolved in the same way were also tested.
(§7) MTT assays with the cell lines Colo205, Colo320, MCF-7, and MRC-5 were performed after addition of the substances and a subsequent 72 h incubation time. At the end of the incubation period, 20 μL of the MTT solution (from a stock solution of 5 mg/mL) was added to each well. After the staining, the plates were incubated at 37 °C for 4 h, then 100 μL of SDS solution (10% in 0.01 M HCI) was added to each well, and the plates were incubated at 37 °C overnight. The optical density (OD) was determined at 540/630 nm with a Multiscan EX ELISA reader (Thermo Labsystems).
as §5

[5] = tested on: A549 non-small-cell lung cancer cells; assay: MTT cytotoxicity assay, A549; conditions: read-out: IC50 A549, 3 × 10^3 cells, 96 h exposure
Description: as §1, §2, §3, §4, §5

[6] = tested on: MCF-7 breast cancer cells; assay: MTT cytotoxicity assay, MCF-7; conditions: read-out: IC50 MCF-7, 10^4 cells, 72 h exposure
Description: as §2, §6, §7, §5

[7] = tested on: Colo320 (doxorubicin-resistant) colon adenocarcinoma cells; assay: MTT cytotoxicity assay, Colo320; conditions: read-out: IC50 Colo320, 10^4 cells, 72 h exposure
Description: as §2, §6, §7, §5

[8] = tested on: Colo205 colon adenocarcinoma cells; assay: MTT cytotoxicity assay, Colo205; conditions: read-out: IC50 Colo205, 10^4 cells, 72 h exposure
Description: as §2, §6, §7, §5

Row | SMILES | redox potential of the Fe(III)/Fe(II) complexes of the ligand [1] | IC50 [2] [µM] | IC50 [3] [µM] | IC50 [4] [µM] | IC50 [5] [µM] | IC50 [6] [µM] | IC50 [7] [µM] | IC50 [8] [µM]
1 | c1cnc2c(c1)ccc1cccnc12 [1,10-phenantroline] | +1130 mV |  |  |  |  |  |  | 
2 | c1ccc(-c2ccccn2)nc1 [2,2-bipiyridine] | +1100 mV |  |  |  |  |  |  | 
3 | [Cl][Cu][Cl] [CuCl2] |  | 28 ± 5 | 154 ± 21 | > 10 | 142 ± 16 | > 10 | > 10 | > 10
4 | [Cl][Fe]([Cl])[Cl] [FeCl3] |  | > 200 | > 200 | > 10 | > 200 | > 10 | > 10 | > 10
5 | [Cl-].[Cl-].[Zn+2] [ZnCl2] |  | 66 ± 3 | 125 ± 16 | > 10 | 123 ± 9 | > 10 | > 10 | > 10
6 | O=C(O)c1ccc(-n2nc(-c3ccccc3O)nc2-c2ccccc2O)cc1 [deferasirox] | −400 mV |  |  |  |  |  |  | 
7 | Cc1c(O)c(=O)ccn1C [deferiprone] | −620 mV |  |  |  |  |  |  | 
8 | CC(=O)N(O)CCCCCNC(=O)CCC(=O)N(O)CCCCCNC(=O)CCC(=O)N(O)CCCCCN [deferoxamine B] | −450 mV |  |  |  |  |  |  | 
